Measured values as given in PubChem BioAssay (NCI).
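Values below derive from 48-hour exposures of cells grown in 96-well plates, with endpoints linearly interpolated between the two concentrations bracketing the appropriate inhibition level. TGI is the concentration that stops growth completely.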

Experiments:
Experiment in all cases: NCI-60 cell line screen, 48 h
SNB-19 CNS = system: SNB-19 CNS
MOLT-4 leukemia = system: MOLT-4 leukemia
EKVX NSCLC = system: EKVX NSCLC
M19-MEL melanoma = system: M19-MEL melanoma
ACHN renal = system: ACHN renal
RXF 393 renal = system: RXF 393 renal
DMS 273 small cell lung = system: DMS 273 small cell lung
SF-295 CNS = system: SF-295 CNS
KM20L2 colon = system: KM20L2 colon
M14 melanoma = system: M14 melanoma
NCI-H23 lung = system: NCI-H23 lung
SNB-78 CNS = system: SNB-78 CNS
IGROV1 ovarian = system: IGROV1 ovarian
A498 renal = system: A498 renal
UACC-257 melanoma = system: UACC-257 melanoma
HOP-92 NSCLC = system: HOP-92 NSCLC
NCI-H522 lung = system: NCI-H522 lung
UACC-62 melanoma = system: UACC-62 melanoma
SK-MEL-28 melanoma = system: SK-MEL-28 melanoma
K-562 leukemia = system: K-562 leukemia
OVCAR-8 ovarian = system: OVCAR-8 ovarian
HCT-116 colon = system: HCT-116 colon
RXF-631 renal = system: RXF-631 renal
U251 CNS = system: U251 CNS
UO-31 renal = system: UO-31 renal
HOP-62 NSCLC = system: HOP-62 NSCLC
KM12 colon = system: KM12 colon
SK-OV-3 ovarian = system: SK-OV-3 ovarian
TK-10 renal = system: TK-10 renal
NCI-H460 lung = system: NCI-H460 lung
OVCAR-5 ovarian = system: OVCAR-5 ovarian
SR leukemia = system: SR leukemia
CCRF-CEM leukemia = system: CCRF-CEM leukemia
HT29 colon = system: HT29 colon
HL-60(TB) leukemia = system: HL-60(TB) leukemia
SF-268 CNS = system: SF-268 CNS
SF-539 CNS = system: SF-539 CNS
SK-MEL-2 melanoma = system: SK-MEL-2 melanoma
SNB-75 CNS = system: SNB-75 CNS
CAKI-1 renal = system: CAKI-1 renal
NCI-H226 lung = system: NCI-H226 lung
HCC-2998 colon = system: HCC-2998 colon
COLO 205 colon = system: COLO 205 colon
A549 NSCLC = system: A549 NSCLC
DMS 114 small cell lung = system: DMS 114 small cell lung
MALME-3M melanoma = system: MALME-3M melanoma
XF 498 CNS = system: XF 498 CNS
786-0 renal = system: 786-0 renal
SN12C renal = system: SN12C renal
SK-MEL-5 melanoma = system: SK-MEL-5 melanoma
HCT-15 colon = system: HCT-15 colon
OVCAR-4 ovarian = system: OVCAR-4 ovarian
OVCAR-3 ovarian = system: OVCAR-3 ovarian
HOP-18 NSCLC = system: HOP-18 NSCLC
LXFL 529 NSCLC = system: LXFL 529 NSCLC
DLD-1 colon = system: DLD-1 colon
LOX IMVI melanoma = system: LOX IMVI melanoma
RPMI-8226 leukemia = system: RPMI-8226 leukemia
SW-620 colon = system: SW-620 colon

Measured: TGI

CC(=O)O[C@H]1CCC(C)=CCC[C@@]2(C)C(CC[C@@H]2[C@@H](C)/C=C/C(C)C)c2ccc(cc2C(=O)O)C1 (stereo partly specified)
16.9 µM: SK-MEL-28 melanoma
16.5 µM: KM12 colon
9.82 µM: UO-31 renal
3.86 µM: HL-60(TB) leukemia
4.79 µM: MOLT-4 leukemia
24.5 µM: RXF-631 renal
19.8 µM: A498 renal
12.2 µM: CCRF-CEM leukemia
13.7 µM: TK-10 renal
11.9 µM: K-562 leukemia | HCT-116 colon
7.67 µM: RXF 393 renal
13.8 µM: SK-OV-3 ovarian
6.63 µM: NCI-H23 lung
10.8 µM: NCI-H460 lung
13.6 µM: HT29 colon
8.53 µM: IGROV1 ovarian
7.49 µM: HOP-62 NSCLC
8.25 µM: U251 CNS
15.5 µM: ACHN renal
13 µM: SNB-19 CNS
14 µM: M19-MEL melanoma | OVCAR-8 ovarian
13.3 µM: DMS 273 small cell lung | HOP-92 NSCLC
14.1 µM: KM20L2 colon
8.43 µM: SF-295 CNS | OVCAR-5 ovarian
6.47 µM: NCI-H522 lung
10.1 µM: SNB-78 CNS
20.3 µM: M14 melanoma
7.61 µM: SR leukemia
14.8 µM: UACC-257 melanoma
3.79 µM: UACC-62 melanoma
30.5 µM: EKVX NSCLC

COc1ccc(/C(=N/Nc2ccccc2)C(c2ccc(OC)cc2)C2OC(=O)c3ccccc32)cc1 (stereo unspecified)
65.8 µM: NCI-H226 lung
> 100 µM: SNB-19 CNS | MOLT-4 leukemia | EKVX NSCLC | SF-539 CNS | ACHN renal | SK-MEL-2 melanoma | DMS 273 small cell lung | SF-295 CNS | KM20L2 colon | M14 melanoma | SNB-75 CNS | CAKI-1 renal | IGROV1 ovarian | A498 renal | UACC-257 melanoma | HCC-2998 colon | NCI-H522 lung | COLO 205 colon | A549 NSCLC | DMS 114 small cell lung | MALME-3M melanoma | UACC-62 melanoma | XF 498 CNS | 786-0 renal | K-562 leukemia | OVCAR-8 ovarian | HCT-116 colon | RXF-631 renal | U251 CNS | UO-31 renal | SN12C renal | HOP-62 NSCLC | SK-MEL-5 melanoma | NCI-H460 lung | HCT-15 colon | CCRF-CEM leukemia | HT29 colon | OVCAR-4 ovarian
91.8 µM: SF-268 CNS

Cc1cc(S(=O)(=O)O)c(NC(=O)C(=O)C2C=CCS2(=O)=O)cc1Cl (stereo unspecified)
> 100 µM: SNB-19 CNS | MOLT-4 leukemia | OVCAR-3 ovarian | EKVX NSCLC | SF-268 CNS | HOP-18 NSCLC | M19-MEL melanoma | SF-539 CNS | ACHN renal | RXF 393 renal | SK-MEL-2 melanoma | DMS 273 small cell lung | SF-295 CNS | LXFL 529 NSCLC | KM20L2 colon | M14 melanoma | NCI-H23 lung | DLD-1 colon | SNB-75 CNS | SNB-78 CNS | CAKI-1 renal | IGROV1 ovarian | A498 renal | LOX IMVI melanoma | UACC-257 melanoma | RPMI-8226 leukemia | NCI-H226 lung | HCC-2998 colon | HOP-92 NSCLC | NCI-H522 lung | COLO 205 colon | A549 NSCLC | DMS 114 small cell lung | MALME-3M melanoma | UACC-62 melanoma | XF 498 CNS | SK-MEL-28 melanoma | 786-0 renal | K-562 leukemia | OVCAR-8 ovarian | HCT-116 colon | U251 CNS | SW-620 colon | UO-31 renal | SN12C renal | HOP-62 NSCLC | SK-MEL-5 melanoma | KM12 colon | SK-OV-3 ovarian | TK-10 renal | NCI-H460 lung | OVCAR-5 ovarian | SR leukemia | HCT-15 colon | CCRF-CEM leukemia | HT29 colon | OVCAR-4 ovarian | HL-60(TB) leukemia

NC(N)=NNC(=O)CCCCCCCC(=O)NN=C(N)N
> 100 µM: SNB-19 CNS | EKVX NSCLC | SF-268 CNS | M19-MEL melanoma | SF-539 CNS | ACHN renal | RXF 393 renal | SK-MEL-2 melanoma | DMS 273 small cell lung | SF-295 CNS | LXFL 529 NSCLC | KM20L2 colon | M14 melanoma | NCI-H23 lung | DLD-1 colon | SNB-78 CNS | CAKI-1 renal | IGROV1 ovarian | A498 renal | LOX IMVI melanoma | UACC-257 melanoma | HCC-2998 colon | A549 NSCLC | DMS 114 small cell lung | MALME-3M melanoma | UACC-62 melanoma | SK-MEL-28 melanoma | 786-0 renal | K-562 leukemia | HCT-116 colon | RXF-631 renal | U251 CNS | UO-31 renal | SN12C renal | HOP-62 NSCLC | SK-MEL-5 melanoma | KM12 colon | SK-OV-3 ovarian | TK-10 renal | NCI-H460 lung | OVCAR-5 ovarian | CCRF-CEM leukemia | HT29 colon | OVCAR-4 ovarian | HL-60(TB) leukemia
34.1 µM: HCT-15 colon
35.4 µM: COLO 205 colon
27.4 µM: SW-620 colon
